Where two headings read alike, the source gives them in different places.
Columns and labels:
Assay in all cases: biochemical
Type in all cases: binding
[1] = molecular target: T1, α4β2 nAChR subtype (Rattus norvegicus, UniProt P09483+P12390)
T1 construct: expressed in transfected cells
Text: (§1) In order to assess the steric and hydropathic effects of the C-5 substituents of the pyridine on the binding affinity and subtype-selectivity at neuronal nicotinic acetylcholine receptors. […] The binding affinity ratios for a ligand, calculated from its affinities at an α subunit paired with either the β2 osubunit or the β4 subunit, represents a measure of the selectivity of that ligand with regard to the β subunits.

[2] = molecular target: T2, α4β4 nAChR subtype (Rattus norvegicus, UniProt P09483+P12392)
T2 construct: expressed in transfected cells
T2 sequence (P12392 21-495): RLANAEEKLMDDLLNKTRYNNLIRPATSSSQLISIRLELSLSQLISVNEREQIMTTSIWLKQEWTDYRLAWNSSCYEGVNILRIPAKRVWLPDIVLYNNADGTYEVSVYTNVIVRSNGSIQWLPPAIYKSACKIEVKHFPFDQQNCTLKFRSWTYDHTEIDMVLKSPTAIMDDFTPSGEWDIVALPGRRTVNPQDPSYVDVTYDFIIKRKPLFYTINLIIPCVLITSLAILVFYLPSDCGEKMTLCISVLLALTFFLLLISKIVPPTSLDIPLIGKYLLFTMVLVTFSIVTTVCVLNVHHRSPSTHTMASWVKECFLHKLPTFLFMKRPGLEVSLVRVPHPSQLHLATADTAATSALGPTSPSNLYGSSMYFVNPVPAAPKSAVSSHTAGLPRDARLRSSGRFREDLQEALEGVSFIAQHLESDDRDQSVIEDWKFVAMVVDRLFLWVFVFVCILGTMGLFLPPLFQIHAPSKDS
T2 sequence (P09483 31-630): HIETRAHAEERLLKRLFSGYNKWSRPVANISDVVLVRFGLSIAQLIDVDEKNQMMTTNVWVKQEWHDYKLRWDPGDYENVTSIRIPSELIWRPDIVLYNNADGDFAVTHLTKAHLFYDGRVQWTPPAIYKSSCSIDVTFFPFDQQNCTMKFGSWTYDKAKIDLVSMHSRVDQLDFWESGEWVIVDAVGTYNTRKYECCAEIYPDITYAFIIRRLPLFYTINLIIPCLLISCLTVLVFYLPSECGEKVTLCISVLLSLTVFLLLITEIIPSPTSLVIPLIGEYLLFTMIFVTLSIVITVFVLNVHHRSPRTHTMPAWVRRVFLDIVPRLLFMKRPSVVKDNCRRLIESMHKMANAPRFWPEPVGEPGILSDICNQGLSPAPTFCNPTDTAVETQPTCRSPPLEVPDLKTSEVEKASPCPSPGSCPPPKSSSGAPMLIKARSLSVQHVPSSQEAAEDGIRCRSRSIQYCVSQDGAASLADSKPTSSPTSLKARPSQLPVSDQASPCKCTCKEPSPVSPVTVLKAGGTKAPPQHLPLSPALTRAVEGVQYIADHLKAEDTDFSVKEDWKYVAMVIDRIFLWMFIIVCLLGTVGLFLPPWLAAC
Text: as §1

[3] = molecular target: T3, α2β4 nAChR subtype (Rattus norvegicus, UniProt P12389+P12392)
T3 construct: expressed in transfected cells
T3 sequence (P12389 28-511): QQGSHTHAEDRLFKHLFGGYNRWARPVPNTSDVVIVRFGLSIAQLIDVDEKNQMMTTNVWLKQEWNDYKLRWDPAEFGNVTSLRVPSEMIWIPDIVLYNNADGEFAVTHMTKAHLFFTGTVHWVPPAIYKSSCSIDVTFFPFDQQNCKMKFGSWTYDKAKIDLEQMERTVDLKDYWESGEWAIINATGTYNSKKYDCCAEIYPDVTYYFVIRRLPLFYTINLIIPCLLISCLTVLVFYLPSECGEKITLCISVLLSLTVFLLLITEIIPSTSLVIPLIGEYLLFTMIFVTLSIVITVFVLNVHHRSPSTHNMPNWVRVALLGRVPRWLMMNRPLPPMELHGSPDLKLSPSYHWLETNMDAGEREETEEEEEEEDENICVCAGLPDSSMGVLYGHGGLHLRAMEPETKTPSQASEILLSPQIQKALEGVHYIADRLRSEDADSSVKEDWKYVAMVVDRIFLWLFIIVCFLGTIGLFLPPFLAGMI
T3 sequence (P12392 21-495): as the sequence (P12392 21-495) above
Text: as §1

[4] = molecular target: T4, α3β4 nAChR subtype (Rattus norvegicus, UniProt P04757+P12392)
T4 construct: expressed in transfected cells
T4 sequence (P04757 26-499): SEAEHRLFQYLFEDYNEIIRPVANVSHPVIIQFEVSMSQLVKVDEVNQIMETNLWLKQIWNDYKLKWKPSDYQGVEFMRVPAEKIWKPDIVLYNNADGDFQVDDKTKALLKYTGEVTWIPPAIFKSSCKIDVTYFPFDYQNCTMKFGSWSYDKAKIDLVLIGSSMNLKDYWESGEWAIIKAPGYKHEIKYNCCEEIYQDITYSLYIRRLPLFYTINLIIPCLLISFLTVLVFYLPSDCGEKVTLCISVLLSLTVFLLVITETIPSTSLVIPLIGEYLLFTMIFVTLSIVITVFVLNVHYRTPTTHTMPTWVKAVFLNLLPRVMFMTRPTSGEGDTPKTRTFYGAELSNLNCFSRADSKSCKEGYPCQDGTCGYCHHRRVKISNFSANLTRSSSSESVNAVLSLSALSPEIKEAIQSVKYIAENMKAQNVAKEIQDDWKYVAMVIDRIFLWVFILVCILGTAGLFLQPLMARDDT
T4 sequence (P12392 21-495): as the sequence (P12392 21-495) above
Text: as §1

[5] = molecular target: T5, α3β2 nAChR subtype (Rattus norvegicus, UniProt P04757+P12390)
T5 construct: expressed in transfected cells
T5 sequence (P12390 25-500): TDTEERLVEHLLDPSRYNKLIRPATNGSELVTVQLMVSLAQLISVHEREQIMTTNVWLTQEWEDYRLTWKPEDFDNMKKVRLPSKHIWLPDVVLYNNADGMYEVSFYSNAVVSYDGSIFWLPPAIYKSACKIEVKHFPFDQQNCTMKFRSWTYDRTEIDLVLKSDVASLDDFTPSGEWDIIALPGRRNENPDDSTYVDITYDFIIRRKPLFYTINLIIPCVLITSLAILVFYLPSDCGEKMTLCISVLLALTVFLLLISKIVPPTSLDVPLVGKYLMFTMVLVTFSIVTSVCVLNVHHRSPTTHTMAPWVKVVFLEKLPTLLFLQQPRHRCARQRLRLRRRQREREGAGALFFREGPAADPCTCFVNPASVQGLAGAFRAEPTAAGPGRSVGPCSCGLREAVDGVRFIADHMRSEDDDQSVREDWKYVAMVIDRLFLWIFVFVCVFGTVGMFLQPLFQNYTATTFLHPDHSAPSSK
T5 sequence (P04757 26-499): as the sequence (P04757 26-499) above
Text: as §1

[6] = molecular target: T6, α2β2 nAChR subtype (Rattus norvegicus, UniProt P12389+P12390)
T6 construct: expressed in transfected cells
T6 sequence (P12390 25-500): as the sequence (P12390 25-500) above
T6 sequence (P12389 28-511): as the sequence (P12389 28-511) above
Text: as §1

[7] = molecular target: T7, receptors in rat forebrain (mainly α4β2) (Rattus norvegicus, UniProt P09483+P12390)
T7 construct: from tissue; host or cells: rat forebrain homogenate
T7 sequence (P09483 31-630): as the sequence (P09483 31-630) above
T7 sequence (P12390 25-500): as the sequence (P12390 25-500) above
Text: as §1
In Vitro Inhibition of ^3H-Epibatidin Binding
The high affinity binding site for ^3H-epibatidin is most certainly binding to the α4β2 subtype of nicotinic receptors. The identity of the low affinity site is still believed to be unknown.
Tissue preparation: Preparations may be performed at 0-4° C. unless otherwise indicated. […] The tissue suspension may then be centrifuged at 27,000×g for 10 min. The supernatant is then discarded and the pellet may then be washed three times by centrifugation at 27,000×g for 10 min in 20 mL fresh buffer, and the final pellet may be resuspended in fresh buffer (400 mL per g of original tissue) and used for binding assays.
Assay: Aliquots of 2.0 mL homogenate may be added to 0.100 mL of test solution and 0.100 mL of ^3H-epibatidin (0.3 nM, final concentration), mixed and incubated for 60 min at room temperature. […] The amount of radioactivity on the filters may be determined by conventional liquid scintillation counting. Specific binding is total binding minus non-specific binding.

[8] = Table 5, rat nAChR subtypes, read-out: Ki α4β2
[9] = Table 5, rat nAChR subtypes, read-out: Ki α4β4
[10] = Table 5, rat nAChR subtypes, read-out: Ki α2β4
[11] = Table 5, rat nAChR subtypes, read-out: Ki α3β4
[12] = Table 5, rat nAChR subtypes, read-out: Ki α3β2
[13] = Table 5, rat nAChR subtypes, read-out: Ki α2β2
[14] = Table 5, *Rat forebrain, mainly α4β2, read-out: Ki α4β2*
[15] = Ki α4β2, Table 4, bivalent analogues
[16] = Ki α4β4, Table 4, bivalent analogues
[17] = Ki α2β4, Table 4, bivalent analogues
[18] = Ki α3β4, Table 4, bivalent analogues
[19] = Ki α3β2, Table 4, bivalent analogues
[20] = Ki α2β2, Table 4, bivalent analogues
[21] = Ki α4β2, Table 5, rat nAChR subtypes
[22] = Ki α2β4, Table 5, rat nAChR subtypes
[23] = Ki α3β4, Table 5, rat nAChR subtypes
[24] = Ki α3β2, Table 5, rat nAChR subtypes
[25] = Ki α2β2, Table 5, rat nAChR subtypes
[26] = Ki α4β2*, Table 5, *Rat forebrain, mainly α4β2
[27] = Ki α4β2, Table 1, mean of 3 (1, 2: 3 to 6) independent measurements
[28] = Ki α3β4, Table 1, mean of 3 (1, 2: 3 to 6) independent measurements
[29] = Ki α4β4, Table 5, rat nAChR subtypes

T1 sequence (P12390 25-500): as above
T1 sequence (P09483 31-630): as the sequence (P09483 31-630) above

O=c1cccc2n1C[C@H]1C[C@@H]2CN(CCCN2C[C@@H]3C[C@H](C2)c2cccc(=O)n2C3)C1 [ZW-18]
Ki [1]: 468 nM | Ki [2]: 746 nM | Ki [3]: 3480 nM | Ki [4]: > 10000 nM | Ki [5]: > 1000 nM | Ki [6]: 318 nM | Ki [7]: 936 nM

Clc1ccc(C2CC3CCC2N3CCCN2C3CCC2C(c2ccc(Cl)nc2)C3)cn1 (stereo not shown) [Ligand 59b, Propane-1,3-N,N′-bisepibatidine]
Ki [1, 8]: 8.66 nM | Ki [2, 9]: 23.3 nM | Ki [3, 10]: 15.7 nM | Ki [4, 11]: 62.9 nM | Ki [5, 12]: 5.17 nM | Ki [6, 13]: 6.08 nM | Ki [7, 14]: 10.1 nM

CN1CCC[C@H]1COc1cncc(C#CC(C)(C)O)c1 [Ligand 15]
Ki [1]: 1.34 nM | Ki [2]: 5060 nM | Ki [3]: 5890 nM | Ki [4]: 32600 nM | Ki [5]: 19.7 nM | Ki [6]: 1.93 nM | Ki [7]: 8.39 nM

Decane-1,3-N,N′-bisepibatidine [Ligand 59d]
Ki [1, 8]: 10.3 nM | Ki [2, 9]: 18.7 nM | Ki [3, 10]: 24.2 nM | Ki [4, 11]: 67.7 nM | Ki [5, 12]: 6.75 nM | Ki [6, 13]: 5.78 nM | Ki [7, 14]: 13.9 nM

O[C@H]1[C@H](c2ccc(Cl)nc2)[C@H]2CC[C@@H]1N2 (relative stereo) [Ligand 3]
Ki ([1]; Ki α4β2): 2.9 nM | Ki ([2]; Ki α4β4): 11.2 nM | Ki ([3]; Ki α2β4): 15.3 nM | Ki ([4]; Ki α3β4): 39.1 nM | Ki ([5]; Ki α3β2): 7.3 nM | Ki ([6]; Ki α2β2): 2.5 nM

Clc1ccc(C2CC3CCC2N3CCN2C3CCC2C(c2ccc(Cl)nc2)C3)cn1 (stereo not shown) [Ligand 59a]
Ki [1, 15]: 10.7 nM | Ki [2, 16]: 18 nM | Ki [3, 17]: 2.9 nM | Ki [4, 18]: 11.8 nM | Ki [5, 19]: 5.6 nM | Ki [6, 20]: 1.3 nM

C#Cc1cncc([C@@H]2CCCN2C)c1 [SIB-1508Y, reference compound]
Ki ([1]; read-out: Ki α4β2): 7080 nM | Ki ([2]; read-out: Ki α4β4): 3240 nM | Ki ([3]; read-out: Ki α2β4): 1140 nM | Ki ([4]; read-out: Ki α3β4): 4430 nM | Ki ([5]; read-out: Ki α3β2): 1890 nM | Ki ([6]; read-out: Ki α2β2): 642 nM

Clc1ccc2c(n1)CCC21CC2CCC1N2 (stereo not shown) [Ligand 58b]
Ki [1, 21]: 5050 nM | Ki ([1]; Table 3, mean ± SEM of 3 (nicotine, 1: 3 to 6) independent measurements, read-out: Ki α4β2): 6990 nM | Ki ([2]; Table 3, mean ± SEM of 3 (nicotine, 1: 3 to 6) independent measurements, read-out: Ki α4β4): 9460 nM | Ki [2, 9]: 9560 nM | Ki [3, 22]: 7090 nM | Ki ([3]; Table 3, mean ± SEM of 3 (nicotine, 1: 3 to 6) independent measurements, read-out: Ki α2β4): 7180 nM | Ki [4, 23]: 14900 nM | Ki ([4]; Table 3, mean ± SEM of 3 (nicotine, 1: 3 to 6) independent measurements, read-out: Ki α3β4): 13800 nM | Ki [5, 24]: 3660 nM | Ki ([5]; Table 3, mean ± SEM of 3 (nicotine, 1: 3 to 6) independent measurements, read-out: Ki α3β2): 4070 nM | Ki [6, 25]: 2460 nM | Ki [7, 26]: 12100 nM

C#Cc1cncc(OC[C@@H]2CCCN2C)c1 [Ligand 18]
Ki [1, 27]: 1.02 nM | Ki ([2]; Ki α4β4, Table 1, mean of 3 (1, 2: 3 to 6) independent measurements): 473 nM | Ki ([3]; Ki α2β4, Table 1, mean of 3 (1, 2: 3 to 6) independent measurements): 434 nM | Ki [4, 28]: 3080 nM | Ki ([5]; Ki α3β2, Table 1, mean of 3 (1, 2: 3 to 6) independent measurements): 10.7 nM | Ki ([6]; Ki α2β2, Table 1, mean of 3 (1, 2: 3 to 6) independent measurements): 0.75 nM | Ki ([7]; Ki Rat forebrain, Table 1, mean of 3 (1, 2: 3 to 6) independent measurements): 3.65 nM

O[C@H]1C[C@H]2C[C@H](c3ccc(Cl)nc3)[C@@H]1N2 (relative stereo) [Ligand 9, 2-exo-(2-Chloro-5-pyridyl)-6-endo-hydroxyl-7-azabicyclo[2.2.1]heptane]
Ki [1, 21]: 0.916 nM | Ki [2, 29]: 5.57 nM | Ki [3, 22]: 5.85 nM | Ki [4, 23]: 27.3 nM | Ki [5, 24]: 1.36 nM | Ki [6, 25]: 1.53 nM | Ki [7, 26]: 4.11 nM

CN1CCC[C@H]1COc1cncc(CCCCCCO)c1 [Ligand 19]
Ki [1, 27]: 0.75 nM | Ki [2]: 968 nM | Ki [3]: 1150 nM | Ki [4, 28]: 20000 nM | Ki [5]: 13.4 nM | Ki [6]: 3.33 nM | Ki [7]: 5.39 nM

Clc1ccc(C2CC3CCC2N3CCCCCCCCCCN2C3CCC2C(c2ccc(Cl)nc2)C3)cn1 (stereo not shown) [Ligand 59d]
Ki [1, 15]: 10.3 nM | Ki [2, 16]: 18.7 nM | Ki [3, 17]: 24.2 nM | Ki [4, 18]: 67.7 nM | Ki [5, 19]: 6.8 nM | Ki [6, 20]: 5.8 nM

O=C1CC2CC(c3ccc(Cl)nc3)C1N2 (racemic) [Ligand 5]
Ki ([1]; read-out: Ki α4β2): 2020 nM | Ki ([2]; read-out: Ki α4β4): 3560 nM | Ki ([3]; read-out: Ki α2β4): 3240 nM | Ki ([4]; read-out: Ki α3β4): 8870 nM | Ki ([5]; read-out: Ki α3β2): 1500 nM | Ki ([6]; read-out: Ki α2β2): 1010 nM

Clc1ccc(C2CC3CCC2N3CCCN2C3CCC2C(c2ccc(Cl)nc2)C3)cn1 (stereo not shown) [Ligand 59b]
Ki [1, 15]: 8.7 nM | Ki [2, 16]: 23.3 nM | Ki [3, 17]: 15.7 nM | Ki [4, 18]: 62.9 nM | Ki [5, 19]: 5.2 nM | Ki [6, 20]: 6.1 nM

OC1CC2CC(c3ccc(Cl)nc3)C1N2 (racemic) [Ligand 9]
Ki ([1]; read-out: Ki α4β2): 0.92 nM | Ki ([2]; read-out: Ki α4β4): 5.57 nM | Ki ([3]; read-out: Ki α2β4): 5.85 nM | Ki ([4]; read-out: Ki α3β4): 27.3 nM | Ki ([5]; read-out: Ki α3β2): 1.36 nM | Ki ([6]; read-out: Ki α2β2): 1.53 nM

O[C@H]1C[C@H]2N[C@@H]1C[C@@H]2c1ccc(Cl)nc1 (relative stereo) [Ligand 6, 2-exo-(2-Chloro-5-pyridyl)-5-exo-hydroxyl-7-azabicyclo[2.2.1]heptane]
Ki [2, 29]: 72.7 nM | Ki [3, 22]: 67.5 nM | Ki [4, 23]: 224 nM | Ki [5, 24]: 19.3 nM | Ki [6, 25]: 16.9 nM | Ki [7, 26]: 69 nM

OCCCCC#Cc1cncc(OC[C@@H]2CCN2)c1 [Ligand 26, 5-(6-Hydroxy-1-hexynyl)-3-(2(S)-azetidinylmethoxy)pyridine]
Ki [1, 21]: 0.09 nM | Ki [2, 29]: 74 nM | Ki [3, 22]: 269 nM | Ki [4, 23]: 4840 nM | Ki [5, 24]: 0.53 nM | Ki [6, 25]: 0.06 nM

Clc1ccc(C2CC3CCC2N3CCCCCCN2C3CCC2C(c2ccc(Cl)nc2)C3)cn1 (stereo not shown) [Ligand 59c]
Ki [1, 15]: 7.2 nM | Ki [2, 16]: 31.9 nM | Ki [3, 17]: 37.4 nM | Ki [4, 18]: 64.7 nM | Ki [5, 19]: 6.6 nM | Ki [6, 20]: 4.1 nM

— patent US8030300B2, “Ligands for nicotinic acetylcholine receptors, and methods of making and using them” (priority 2003, dated 2011)
